From PubChem BioAssay AID1259408 (Genetic Toxicology Data Bank (GENE-TOX), 2018) come the findings set out here.

Activity calls are given as the source filed them. No rule for the calls is given here.

The test system of this series is GENE-TOX genotoxicity assays, various organisms and cells. The series can be described thus: GENE-TOX mutagenicity studies. The note with it: for call: Assay Type: In vivo carcinogenicity studies.
Where [1] appears, read: Species/Cell Type: Fischer rat embryo (RLV/1706) cells, Assay Type: Cell transformation, viral enhanced, Assay Code: CTR+, Evaluation Type: Evaluation A (Pre-1980).
The mark [2] stands for this setting: Species/Cell Type: Human, Assay Type: Sister-chromatid exchange (SCE) in vitro, Assay Code: SC1+D, Dose Response: With dose response, Evaluation Type: Evaluation B (Post-1980).

On to `O=P1(N(CCCl)CCCl)NCCCO1` (configuration not stated), for which the mutagenic call is “inactive; negative” (Species/Cell Type: Arabidopsis species, Assay Type: Gene mutation, Assay Code: ARM-, Evaluation Type: Evaluation A (Pre-1980)); “active; positive” (Species/Cell Type: Chinese hamster ovary (CHO) cells, Assay Type: Forward gene mutation at the HPRT locus, Assay Code: CHO+*, Activation: With metabolic activation, Evaluation Type: Evaluation B (Post-1980)); “active; positive” (Species/Cell Type: Drosophila melanogaster, Assay Type: Sex-linked recessive lethal gene mutation, Assay Code: SRL+, Evaluation Type: Evaluation A (Pre-1980)); “active; positive” (Species/Cell Type: Escherichia coli WP2, Assay Type: Tryptophan reverse gene mutation, Assay Code: WP2+, Evaluation Type: Evaluation A (Pre-1980)); “active; positive” (Species/Cell Type: Escherichia coli WP2 UVRA, Assay Type: Tryptophan reverse gene mutation, Assay Code: WPU+, Evaluation Type: Evaluation A (Pre-1980)); “active; positive” (Species/Cell Type: Escherichia coli polA (W3110 vs P3478), Assay Type: Rec-assay, DNA effects (bacterial DNA repair), Assay Code: RE2+, Evaluation Type: Evaluation A (Pre-1980)). Also, the mutagenic call by setting is: (Species/Cell Type: F1 mouse, Sex: Male, Assay Type: Sperm morphology, Assay Code: SPF+, Evaluation Type: Evaluation A (Pre-1980)) “active; positive”; under setting [1], “active; positive”; (Species/Cell Type: Human bone marrow, Assay Type: Chromosome aberrations in vivo, Assay Code: CY5+, Evaluation Type: Evaluation A (Pre-1980)) “active; positive”; (Species/Cell Type: Human cell culture, Assay Type: Chromosome aberrations in vitro, Assay Code: CYZ+, Evaluation Type: Evaluation A (Pre-1980)) “active; positive”; (Species/Cell Type: Human diploid fibroblasts, Assay Type: Unscheduled DNA synthesis (UDS) in vitro, DNA effects, Assay Code: UDHT, Evaluation Type: Evaluation A (Pre-1980)) “no conclusion”; (Species/Cell Type: Human lymphocytes or leukocytes, Assay Type: Chromosome aberrations in vitro, Assay Code: CY7+D, Dose Response: With dose response, Evaluation Type: Evaluation A (Pre-1980)) “active; positive”. The mutagenic call was “active; positive” (Species/Cell Type: Human lymphocytes or leukocytes, Assay Type: Chromosome aberrations in vivo, Assay Code: CY8+, Evaluation Type: Evaluation A (Pre-1980)); “active; positive” (Species/Cell Type: Human lymphocytes, Assay Type: Sister-chromatid exchange (SCE) in vitro, Assay Code: SCL+D, Dose Response: With dose response, Evaluation Type: Evaluation B (Post-1980)); “no conclusion” (Species/Cell Type: Human lymphocytes, Assay Type: Sister-chromatid exchange (SCE) in vitro, Assay Code: SCLT, Evaluation Type: Evaluation A (Pre-1980)); “active; positive” (Species/Cell Type: Human lymphocytes, Assay Type: Sister-chromatid exchange (SCE) in vivo, Assay Code: SCY+, Evaluation Type: Evaluation B (Post-1980)); “active; positive” under setting [2]; “active; positive” (Species/Cell Type: Human, Sex: Male, Assay Type: Sperm morphology, Assay Code: SPH+, Evaluation Type: Evaluation A (Pre-1980)). For the same compound, the mutagenic call is “active; positive” (Species/Cell Type: Mammalian germ cells, Sex: Male, Assay Type: Chromosome aberrations in vivo, Assay Code: CY9+, Evaluation Type: Evaluation A (Pre-1980)); “active; positive” (Species/Cell Type: Mammalian oocytes or early embryo, Assay Type: Chromosome aberrations in vivo, Assay Code: CYO+D, Dose Response: With dose response, Evaluation Type: Evaluation A (Pre-1980)); “active; positive” (Species/Cell Type: Mammalian polychromatic erythrocytes, Assay Type: Micronucleus test, chromosome aberrations, Assay Code: MNT+, Evaluation Type: Evaluation A (Pre-1980)); “inactive; negative” (Species/Cell Type: Mouse (BALB/c-3T3) cells, Assay Type: Cell transformation, Assay Code: CTB-, Evaluation Type: Evaluation A (Pre-1980)); “active; positive” (Species/Cell Type: Mouse (C3H/10T1/2) cells, Assay Type: Cell transformation, Assay Code: CTH+D*, Activation: With metabolic activation, Dose Response: With dose response, Evaluation Type: Evaluation A (Pre-1980)); “active; positive” (Species/Cell Type: Mouse germ cells, Sex: Male, Assay Type: Unscheduled DNA synthesis (UDS) in vivo, DNA effects, Assay Code: UDT+, Evaluation Type: Evaluation A (Pre-1980)). In addition, the mutagenic call is “active; positive” (Species/Cell Type: Mouse lymphoma (L5178Y) cells, Assay Type: Forward gene mutation at the thymidine kinase (TK) locus, chromosome aberrations, Assay Code: L51+*, Activation: With metabolic activation, Evaluation Type: Evaluation A (Pre-1980)); “active; positive” (Species/Cell Type: Mouse, Sex: Female, Assay Type: Spot test, gene mutation, Assay Code: MST+, Evaluation Type: Evaluation A (Pre-1980)); “active; positive” (Species/Cell Type: Mouse, Sex: Male, Assay Type: Heritable translocation test, chromosome aberrations, Assay Code: HTT+, Evaluation Type: Evaluation A (Pre-1980)); “active; positive” (Species/Cell Type: Mouse, Sex: Male, Assay Type: Specific locus test, gene mutation, Assay Code: SLT+, Evaluation Type: Evaluation A (Pre-1980)); “active; positive” (Species/Cell Type: Mouse, Sex: Male, Assay Type: Sperm morphology, Assay Code: SPI+, Evaluation Type: Evaluation A (Pre-1980)); “active; positive” (Species/Cell Type: Nonhuman bone marrow, Assay Type: Chromosome aberrations, in vivo, Assay Code: CY#+D, Dose Response: With dose response, Evaluation Type: Evaluation A (Pre-1980)). In addition, the mutagenic call (Species/Cell Type: Nonhuman, Assay Type: Sister-chromatid exchange (SCE) in vitro, Assay Code: SC2+D, Dose Response: With dose response, Evaluation Type: Evaluation A (Pre-1980)) is “active; positive”; the mutagenic call (Species/Cell Type: Nonhuman, Assay Type: Sister-chromatid exchange (SCE) in vivo, Assay Code: SC3+D, Dose Response: With dose response, Evaluation Type: Evaluation A (Pre-1980)) was “active; positive”; the mutagenic call (Species/Cell Type: Rabbit, Sex: Male, Assay Type: Sperm morphology, Assay Code: SPRT, Evaluation Type: Evaluation A (Pre-1980)) is given as “no conclusion”; the mutagenic call (Species/Cell Type: Rat, Sex: Male, Assay Type: Sperm morphology, Assay Code: SPA+, Evaluation Type: Evaluation A (Pre-1980)) was “active; positive”; the mutagenic call (Species/Cell Type: Rodents, Sex: Male, Assay Type: Dominant lethal test, Assay Code: DLT+D, Dose Response: With dose response, Evaluation Type: Evaluation A (Pre-1980)) is “active; positive”; the mutagenic call (Species/Cell Type: Saccharomyces cerevisiae, Assay Type: Forward gene mutation, Assay Code: YEF+, Evaluation Type: Evaluation A (Pre-1980)) was “active; positive”. In addition, the mutagenic call by setting is: (Species/Cell Type: Saccharomyces cerevisiae, Assay Type: Mitotic recombination or gene conversion, Assay Code: YEC+*, Activation: With metabolic activation, Evaluation Type: Evaluation A (Pre-1980)) “active; positive”; (Species/Cell Type: Saccharomyces cerevisiae, Assay Type: Mitotic recombination or gene conversion, Assay Code: YEH+, Evaluation Type: Evaluation A (Pre-1980)) “active; positive”; (Species/Cell Type: Saccharomyces cerevisiae, Assay Type: Reverse gene mutation, Assay Code: YER+, Evaluation Type: Evaluation A (Pre-1980)) “active; positive”; (Species/Cell Type: Salmonella typhimurium (one or more of the five standard strains: TA98, TA100, TA1535, TA1537, and TA1538), Assay Type: Histidine reverse gene mutation, Ames assay, Assay Code: SAL+*, Activation: With metabolic activation, Evaluation Type: Evaluation A (Pre-1980)) “active; positive”; (Species/Cell Type: Salmonella typhimurium, Escherichia coli, Serratia marcesens, human lymphoid cells, Saccharomyces cerevisiae, Chinese ha, Assay Type: Forward and reverse gene mutation, mitotic recombination and gene conversion, DNA effects, chromosome aberrations, host-, Assay Code: HM6+, Evaluation Type: Evaluation A (Pre-1980)) “active; positive”; (Species/Cell Type: Salmonella typhimurium, Saccharomyces cerevisiae, human leukocytes and diploid fibroblasts, Assay Type: Forward and reverse gene mutation, mitotic recombination and gene conversion, DNA effects, body fluid assay, Assay Code: BFJ+, Evaluation Type: Evaluation A (Pre-1980)) “active; positive”. In addition, the call (Species/Cell Type: Nonhuman, Assay Code: CCG+, Evaluation Type: Evaluation A (Pre-1980)) is “active; positive”.
In the case of `O=Nc1ccc2c(c1)Cc1ccccc1-2`, the mutagenic call (Species/Cell Type: Escherichia coli polA (W3119 vs P3478), Assay Type: Rec-assay, DNA effects (bacterial DNA repair), Assay Code: RE1+, Evaluation Type: Evaluation A (Pre-1980)) was “active; positive”; the mutagenic call (Species/Cell Type: Salmonella typhimurium (one or more of the five standard strains: TA98, TA100, TA1535, TA1537, and TA1538), Assay Type: Histidine reverse gene mutation, Ames assay, Assay Code: SAL+, Evaluation Type: Evaluation A (Pre-1980)) is “active; positive”.
On to `CNC(=O)CSP(=S)(OC)OC`, for which the mutagenic call (Species/Cell Type: Allium cepa, Assay Type: Chromosome aberrations, Assay Code: ALC+, Evaluation Type: Evaluation A (Pre-1980)) is “active; positive”; the mutagenic call (Species/Cell Type: Bacillus subtilis (H17 vs M45), Assay Type: Rec-assay, spot test, DNA effects (bacterial DNA repair), Assay Code: REWT, Evaluation Type: Evaluation A (Pre-1980)) was “no conclusion”; the mutagenic call (Species/Cell Type: Drosophila melanogaster, Assay Type: Sex-linked recessive lethal gene mutation, Assay Code: SRL-, Evaluation Type: Evaluation A (Pre-1980)) was “inactive; negative”; the mutagenic call under setting [2] is “active; positive”; the mutagenic call (Species/Cell Type: Mammalian polychromatic erythrocytes, Assay Type: Micronucleus test, chromosome aberrations, Assay Code: MNT+U, Dose Response: Unconfirmed positive response, Evaluation Type: Evaluation B (Post-1980)) is “active; positive”; the mutagenic call (Species/Cell Type: Nonhuman, Assay Type: Sister-chromatid exchange (SCE) in vitro, Assay Code: SC2+, Evaluation Type: Evaluation B (Post-1980)) is “active; positive”. For the same compound, the mutagenic call is, setting by setting: (Species/Cell Type: Saccharomyces cerevisiae, Assay Type: Mitotic recombination or gene conversion, Assay Code: YEC+, Evaluation Type: Evaluation A (Pre-1980)) “active; positive”; (Species/Cell Type: Vicia faba, Assay Type: Chromosome aberrations, Assay Code: VIC+D, Dose Response: With dose response, Evaluation Type: Evaluation A (Pre-1980)) “active; positive”. Besides, under “Species/Cell Type: Nonhuman, Assay Code: CCG-, Evaluation Type: Evaluation A (Pre-1980)”, the call is “inactive; negative”.
As for `CN(C)c1ccc(N=Nc2ccc3ncccc3c2)cc1`, the mutagenic call is, setting by setting: under setting [1], “active; positive”; (Species/Cell Type: Mouse embryo (AKR/ME) cells, Assay Type: Cell transformation, Assay Code: CTK+, Evaluation Type: Evaluation A (Pre-1980)) “active; positive”.
In the case of `O=C(O)CS`, under “Species/Cell Type: Mammalian polychromatic erythrocytes, Assay Type: Micronucleus test, chromosome aberrations, Assay Code: MNTT, Evaluation Type: Evaluation B (Post-1980)”, the mutagenic call is “no conclusion”.
